Data on 1 substance can be found in US10617636B2, “Cannabis infused sweeteners and elixirs” (SRE Wellness, Inc., priority 2016, dated 2020).

The series is described as follows: Emulsification of coconut oil and water with different emulsifiers (Example 2). The note with it: coconut oils solid and liquid (MCT); emulsifying agent tested. The format is physicochemical.

Description: Several experiments were run using several different emulsifiers and combinations of different coconut oils: solid and liquid (MCT). (Note: liquid MCT is coconut oil that has medium chain triglyceride).
The method used to produce the invention emulsifications, included first heating extra virgin organic coconut oil to between 120 to 220 degrees F. CO2 extracted cannabis oil is added. In a high speed blender (or similar machine) coconut water is added to the coconut fat (oil) to ensure emulsification. While blending, xanthan gum powder is added in an amount between 0.15% and 0.45% of the total volume of finished product. Percentages used herein are on a dry weight basis and are based on the total volume of the finished product. The blender is run at high speed for between 30 seconds and 2.

For cyclodextrin, the “emulsification of the oil and water (result in words)” value is “good results”.
